In patent US5273985A, “Glycerin derivative and its pharmacological use” (Eisai Co., Ltd., priority 1988, dated 1993):

Key:
[1] = test system: platelet agglutination caused by PAF; test: Inhibition of platelet agglutination caused by human PAF (platelet-rich plasma, optical method of Born); assay type: cell-based; conditions: PAF at minimum concentration for maximum agglutination, read-out: Agglutination inhibiting activity IC50
Method: Effect on the Agglutination Caused by Human PAF
One part by volume of a 3.8% sodium citrate solution was added to 9 parts by volume of blood sampled from the forearm of a healthy adult to whom had been administered no medicine for at least two weeks. A platelet-rich plasma (PRP) was prepared by centrifugation. The inhibition of the platelet agglutination was determined by an optical method of Born et al. with a Hematolaser II® (a platelet agglutination meter of Niko Bioscience Co.). PAF was dissolved in Tyrode solution [Ca^++ (+)] to form a solution having the minimum concentration for causing the maximum agglutination. The test compound was dissolved in a physiological saline.
The agglutination inhibiting activity of the test compound was determined from the rate of inhibition of the maximum light transmittance (maximum agglutination rate) caused by PAF in control PRP. IC50 was determined from the inhibition curve.
The numeral in the column of the Test compound in Table 1 refers to the Example number of the compound.

Human PAF Receptor = molecular target: T1, Human PAF Receptor (Homo sapiens, UniProt P25105); test: Human PAF receptor binding assay (3H-PAF, platelets); conditions: 3H-PAF 0.6 to 1 nM, 37° C., read-out: PAF receptor antagonism IC50
T1 construct: The platelets were sampled from healthy males by an ordinary method; endogenous in cells; host or cells: human platelets from healthy males (intact platelet suspension)
T1 sequence (P25105 whole entry): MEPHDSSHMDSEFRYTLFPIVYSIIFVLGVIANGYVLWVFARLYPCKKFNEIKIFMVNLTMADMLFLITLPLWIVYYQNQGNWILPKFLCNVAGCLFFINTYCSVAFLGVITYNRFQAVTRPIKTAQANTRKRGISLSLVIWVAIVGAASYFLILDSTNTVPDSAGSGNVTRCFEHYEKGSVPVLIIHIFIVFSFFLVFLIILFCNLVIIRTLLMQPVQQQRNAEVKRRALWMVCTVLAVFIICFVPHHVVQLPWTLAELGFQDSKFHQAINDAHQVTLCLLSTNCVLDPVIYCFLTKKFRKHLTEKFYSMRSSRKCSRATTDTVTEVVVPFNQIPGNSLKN
Method: Human PAF Receptor Binding Assay
The platelets were sampled from healthy males by an ordinary method and suspended in a binding buffer [10 mM phosphate-buffered saline (pH 7.0) containing 0.1 w/v % of BSA and 0.9 mM of CaCl2) to form a suspension having a concentration of 10^8 /460 μl. 20 μl of a solution of the test compound in the binding buffer was placed in a polypropylene tube and then 460 μl of the platelet suspension was added thereto. The mixture was subjected to a vortex treatment and then incubated at 37° C. for 6 min. 20 μl of a solution of ^3 H-PAF in the binding buffer (final ^3 H-PAF concentration: 0.6 to 1 nM) was added thereto and the mixture was incubated for 6 min. 3 ml of a washing solution (saline containing 0.1 w/v % of BSA) cooled with ice was added thereto to terminate the reaction. The reaction mixture was filtered by suction through a glass filter (Whatman GF/C). The glass filter was dried and the radioactivity thereof was determined with a liquid scintillation counter.
The inhibition % was calculated according to the following equation and IC50 so was determined by interpolation from the figure. [formula] wherein: total binding: dpm obtained when the concentration of the medicine or PAF is 0,
non-specific binding: dpm obtained when 10^-5 M of cold PAF was added.

lethal activity of PAF = test: Preventive effect against the lethal activity of PAF; assay type: in vivo, ICR male mice; conditions: 15 minutes before PAF i.v.; for number of dead mice / number of mice (Survival rate): after one hour; for Survival rate: survival after one hour
Method: Preventive Effect Against the Lethal Activity of PAF:
A physiological saline or the test compound was given to ICR male mice weighing around 30 g by intravenous injection. After 15 minutes, 100 wg/kg of PAF was given to them by intravenous injection. Life and death of them were examined after one hour and the survival rate was determined.
The survival rate is given by percentage. The denominator of the fraction
is the number of the mice and the numerator is the number of the dead

[2] = test system: blood pressure drop induced by PAF; test: Action on the blood pressure drop induced by PAF; assay type: in vivo, F344 rats; conditions: Rattus norvegicus, iv, 0.05 h; 0.01 mg/kg, i.v., three minutes after 0.5 μg/kg PAF; ratio of blood pressure rise to drop; read-out: Recovery rate
Method: Action on the Blood Pressure Drop Induced by […]
Cannulae were inserted into the carotid and the jugular of each of F344 rats anesthetized with Pento (50 mg/kg, i. p.). The blood pressure was determined at the carotid and 0.5 ml/kg of PAF or the test compound was given through the jugular. Three minutes after the injection of 0.5 μg/kg of PAF, the test compound was given and the antagonism thereof was evaluated.
The recovery rate shown in Table 4 is the ratio of the blood pressure rise by the test compound to the drop thereof.

[3] = Determination of stability in aqueous solution; assay type: physicochemical; conditions: pH 7.4, 37° C., 0.5M sodium phosphate; read-out: Half-value period of disappearance due to hydrolysis (t1/2) (converted)
Method: Determination of Stability in Aqueous Solution
These compounds were unstable in a neutral or alkaline aqueous solution mainly due to the hydrolysis reaction of the N-acetyl or N-benzoyl group. The relationships between the pH and decomposition rate of several compounds were examined to find that they have the same pattern. The decomposition rate constant under conditions (pH 7.4, 37° C.) where they were relatively easily decomposed was determined and the stabilities of the compounds were compared with one another.
9 parts by volume of a buffer solution (0.5M sodium phosphate, pH 7.4) was added to 1 part by volume of an aqueous sample solution (1 mg/ml) and the mixture was kept at 37° C. The sampling was conducted at appropriate time intervals and the residual rate of an unreacted compound was determined by reversed phase high-performance liquid chromatography. Since the decomposition rate of most of the compounds can be approximately represented by the first-order decomposition rate equation, the decomposition rate constant was determined by the least squares method.

SMILES	IC50 [1] [nM]	IC50 (Human PAF Receptor) [nM]	number of dead mice / number of mice (Survival rate) (lethal activity of PAF; 0.03 mg/kg i.v.)	Survival rate (lethal activity of PAF; 0.03 mg/kg i.v.) [%]	number of dead mice / number of mice (Survival rate) (lethal activity of PAF; 0.1 mg/kg i.v.)	Survival rate (lethal activity of PAF; 0.1 mg/kg i.v.) [%]	number of dead mice / number of mice (Survival rate) (lethal activity of PAF; 0.3 mg/kg i.v.)	Survival rate (lethal activity of PAF; 0.3 mg/kg i.v.) [%]	inhibition in vivo at 0.01 mg/kg [2] [%]	half-life [3] [h]
CCCCCCCCCCCCCCCCCCNS(=O)(=O)c1ccc(CNC(=O)OCC(COC(=O)N(Cc2cccc[n+]2CC)C(=O)c2ccccc2OC)OC)cc1 (stereo not shown) [Example 13, 1-Ethyl-2-[N-(2-methoxy)benzoyl-N-{2-methoxy-3-(4-octadecylsulfamoyl)benzylcarbamoyloxypropyloxy}carbonyl]aminomethylpyridinium chloride]	72	0.25	3/7	57.1	0/7	100	0/7	100	89.7	21.5
CCCCCCCCCCCCCCCCCCOc1c(OC)cc(COCC(COC(=O)N(Cc2cccc[n+]2CC)C(=O)c2ccccc2OC)OC)cc1OC (stereo not shown) [Example 18, 1-ethyl-2-(((N-((3,5-dimethoxy-4-octadecyloxy)benzyloxy-2-methoxypropyloxy))carbonyl-N-(2-methoxy)benzoyl))) aminomethyl pyridinium chloride]	660	0.71	–	–	–	–	–	–	74.1	37.7
CCCCCCCCCCCCCCCCCCNC(=O)OC1CCN(C(=O)OCC(COC(=O)N(Cc2cccc[n+]2CC)C(=O)c2ccccc2OC)OC)CC1 (stereo not shown) [Example 15, 1-Ethyl-2-[N-(2-methoxy)benzoyl-N-{2-methoxy-3-(4-octadecylcarbamoyloxy)piperidinocarbonyloxypropyloxyl}carbonyl]aminomethylpyridinium chloride]	80	0.19	2/7	71.4	3/7	57.1	0/7	100	94.6	24.4
CCCCCCCCCCCCCCCCCCNC(=O)OCCCNC(=O)OCC(COC(=O)N(Cc1cccc[n+]1CC)C(=O)c1ccccc1OC)OC (stereo not shown) [Example 14, 1-Ethyl-2-[N-(2-methoxy)benzoyl-N-{2-methoxy-3-(3-octadecylcarbamoyloxy)propylcarbamoyloxy}propoxycarbonyl]aminomethylpyridinium chloride]	44	0.19	–	–	–	–	–	–	96.8	26.1
